For 22 compounds, EC50 results are on record in patent US10357477B2, “Anticancer compounds” (REGENTS OF THE UNIVERSITY OF MINNESOTA, priority 2016, dated 2019).

For one test, the system named is Panc-1 cells. In words: Cell viability assay (MTT) in Panc-1 cells. The settings on record: Homo sapiens, antiproliferative activity, 72 h. Format: cell-based. The procedure:
Panc-1 cells are maintained in RPMI 1640 (Invitrogen 11875) media supplemented with 10% FBS, 1% Penicillin/Streptomycin and 1% Glutamax-1. Cells were plated in 96-well plates at 25×10^4 cells/ml. After 24 hours, compounds were added at 9, 3× dilutions in triplicate from 100 uM final concentration in the appropriate growth media. Plates were incubated for 72 hours at 37° C. in a 5% CO2/95% air humidified atmosphere after which time the media was removed and MTT was added in RPMI phenol red free media. The MTT was removed after 3 hours and formazan crystals were solubilized with 200 μL of isopropanol. Plates were read on a Molecular Devices SpectraMax i3 spectrophotometer at 570 nm for formazan and 690 nm for background subtraction. EC50 values were calculated by fitting the data in GraphPad Prism software.

The subject of a further test is MIA PaCa-2 cells. In words: Cell viability assay (MTT) in MIA PaCa-2 cells. In kind it is cell-based. The settings on record: Homo sapiens, antiproliferative activity, 72 h. The procedure: MIA PaCa-2 cells (CRL-1420, ATCC) were maintained in DMEM media supplemented with 10% FBS, 2.5% HS, 1% GlutaMAX, 1% sodium pyruvate, 100 U/mL penicillin, and 100 μg/mL streptomycin. Cell culture media and additives were purchased from Gibco. Cells were plated in 96-well plates at |1−2.5|×10^4 cells per well in the DMEM growth media. One microliter of a 2-fold serially diluted compound solution in DMSO (Sigma) starting at 20 mM (100 μM final concentration) was added to each well. The final volume in each well was 200 μL, yielding a final DMSO concentration of 0.5%. Control wells contained 0.5% DMSO (100% viability) or 25% DMSO (background) and all reactions were done in triplicate. The plate was incubated for 72 h at 37° C. in a 5% CO2/95% air humidified atmosphere.
Measurement of cell viability was carried out using a modified method of Mosmann based on 3-(4,5-dimethylthiazol-2-yl)-2,5-diphenyltetrazolium bromide (MTT, Sigma). MTT solution was prepared fresh at 1 mg/mL in serum-free and phenol red-free RPMI 1640 media. After 200 μL of MTT solution was added to each well, the plate was incubated as described above for 3 h. The MTT solution was removed, and the formazan crystals were solubilized with 200 μL of isopropanol. The plate was read on a SpectraMax i3 spectrophotometer (Molecular Devices) at 570 nm for formazan and 650 nm for background subtraction. EC50 values were calculated by fitting the data in GraphPad Prism software. EC50 values were determined in triplicate.

Molecules are shown by their SMILES.

As for `Cc1nn(Cc2cccc(C(=O)NC(C)C)c2)c(C)c1NC(=O)c1ccc(COc2ccccc2)cc1` [Compound A4c, 3-((3,5-Dimethyl-4-(4-(phenoxymethyl)benzamido)-1H-pyrazol-1-yl)methyl)-N-isopropylbenzamide], the values for the EC50 in the test on Panc-1 cells and with MIA PaCa-2 cells were 1.4 µM and 8.9 µM, respectively.
On to `Cc1nn(Cc2ccccc2N)c(C)c1NC(=O)c1ccc(COc2ccccc2)cc1` [Compound A6c, N-(1-(2-Aminobenzyl)-3,5-dimethyl-1H-pyrazol-4-yl)-4-(phenoxymethyl)benzamide], for which the results for the EC50 in the test with Panc-1 cells and in the test on MIA PaCa-2 cells were 22 µM and 11 µM, respectively.
With `CNC(=O)c1cccc(Cn2nc(C)c(NC(=O)c3ccc(COc4ccc(C)cc4)cc3)c2C)c1` [Compound D3c, 3-((3,5-Dimethyl-4-(4-((p-tolyloxy)methyl)benzamido)-1H-pyrazol-1-yl)methyl)-N-methylbenzamide], the EC50 with Panc-1 cells came to 13 µM; in the test on MIA PaCa-2 cells, 2.6 µM.
`CNC(=O)c1cccc(Cn2nc(C)c(NC(=O)c3ccc(COc4ccccc4Cl)cc3)c2C)c1` [Compound D5a, 3-((4-(4-((2-Chlorophenoxy)methyl)benzamido)-3,5-dimethyl-1H-pyrazol-1-yl)methyl)-N-methylbenzamide]: the EC50 in the test with Panc-1 cells was determined as 9.9 µM; in the test with MIA PaCa-2 cells, 6.3 µM.
With `CC(=O)Nc1cccc(Cn2nc(C)c(NC(=O)c3ccc(COc4ccccc4)cc3)c2C)c1` [Compound A7b, N-(1-(3-Acetamidobenzyl)-3,5-dimethyl-1H-pyrazol-4-yl)-4-(phenoxymethyl)benzamide], the EC50 was 12 µM in the test on Panc-1 cells and 2.7 µM in the test with MIA PaCa-2 cells.
`CNC(=O)c1cccc(Cn2nc(C)c(NC(=O)c3ccc(COc4cccc(OC)c4)cc3)c2C)c1` [Compound D4b, 3-((4-(4-((3-Methoxyphenoxy)methyl)benzamido)-3,5-dimethyl-1H-pyrazol-1-yl)methyl)-N-methylbenzamide]: the EC50 in the test with Panc-1 cells and with MIA PaCa-2 cells was 6.2 µM in each case.
Take `Cc1nn(Cc2ccccc2C(N)=O)c(C)c1NC(=O)c1ccc(COc2ccccc2)cc1` [Compound A2c, N-(1-(2-Carbamoylbenzyl)-3,5-dimethyl-1H-pyrazol-4-yl)-4-(phenoxymethyl)benzamide]: the EC50 was above 100 µM with Panc-1 cells and 42 µM in the test on MIA PaCa-2 cells.
`CC(=O)Nc1ccccc1Cn1nc(C)c(NC(=O)c2ccc(COc3ccccc3)cc2)c1C` [Compound A7c, N-(1-(2-Acetamidobenzyl)-3,5-dimethyl-1H-pyrazol-4-yl)-4-(phenoxymethyl)benzamide]: the half-maximal effective concentration (EC50) was found to be 31 µM with Panc-1 cells and 2.6 µM with MIA PaCa-2 cells.
The corresponding values for `CC(=O)Nc1ccc(Cn2nc(C)c(NC(=O)c3ccc(COc4ccccc4)cc3)c2C)cc1` [Compound A7a, N-(1-(4-Acetamidobenzyl)-3,5-dimethyl-1H-pyrazol-4-yl)-4-(phenoxymethyl)benzamide] are above 100 µM and 50 µM.
Consider `Cc1nn(Cc2cccc(C(=O)N(C)C)c2)c(C)c1NC(=O)c1ccc(COc2ccccc2)cc1` [Compound A4a, 3-((3,5-Dimethyl-4-(4-(phenoxymethyl)benzamido)-1H-pyrazol-1-yl)methyl)-N,N-dimethylbenzamide], for which the EC50 was found to be 1.2 µM in the test on Panc-1 cells and 6.4 µM in the test with MIA PaCa-2 cells.
In the case of `CNC(=O)c1cccc(Cn2nc(C)c(NC(=O)c3ccc(COc4ccc(Cl)cc4)cc3)c2C)c1` [Compound D5c, 3-((4-(4-((4-Chlorophenoxy)methyl)benzamido)-3,5-dimethyl-1H-pyrazol-1-yl)methyl)-N-methylbenzamide], the results for the EC50 with Panc-1 cells and in the test with MIA PaCa-2 cells were 2 µM and 4.2 µM, respectively.
With `CNC(=O)c1ccccc1Cn1nc(C)c(NC(=O)c2ccc(COc3ccccc3)cc2)c1C` [Compound A3c, 2-((3,5-Dimethyl-4-(4-(phenoxymethyl)benzamido)-1H-pyrazol-1-yl)methyl)-N-methylbenzamide], the values for the EC50 in the test on Panc-1 cells and in the test with MIA PaCa-2 cells were 14 µM and 7.7 µM, respectively.
Turning to `CNC(=O)c1ccc(Cn2nc(C)c(NC(=O)c3ccc(COc4ccccc4)cc3)c2C)cc1` [Compound A3a, N-(3,5-Dimethyl-1-(4-(methylcarbamoyl)benzyl)-1H-pyrazol-4-yl)-4-(phenoxymethyl)benzamide], the values for the EC50 with Panc-1 cells and in the test on MIA PaCa-2 cells were 36 µM and 12 µM, respectively.
As to `CNC(=O)c1cccc(Cn2nc(C)c(NC(=O)c3ccc(COc4cccc(C(F)(F)F)c4)cc3)c2C)c1` [Compound D9b, 3-((3,5-Dimethyl-4-(4-((3-(trifluoromethyl)phenoxy)-methyl)benzamido)-1H-pyrazol-1-yl)methyl)-N-methylbenzamide], the EC50 amounted to 0.76 µM in the test on Panc-1 cells and 2.3 µM in the test with MIA PaCa-2 cells.
Regarding `Cc1nn(Cc2ccc(N)cc2)c(C)c1NC(=O)c1ccc(COc2ccccc2)cc1` [Compound A6a, N-(1-(4-Aminobenzyl)-3,5-dimethyl-1H-pyrazol-4-yl)-4-(phenoxymethyl)benzamide], the values for the EC50 with Panc-1 cells and in the test with MIA PaCa-2 cells were 44 µM and above 100 µM, respectively.
`Cc1nn(Cc2cccc(C(N)=O)c2)c(C)c1NC(=O)c1ccc(COc2ccccc2)cc1` [Compound A2b, N-(1-(3-Carbamoylbenzyl)-3,5-dimethyl-1H-pyrazol-4-yl)-4-(phenoxymethyl)benzamide]: the EC50 in the test with Panc-1 cells is 11 µM; in the test with MIA PaCa-2 cells it was 9.2 µM.
Regarding `Cc1nn(Cc2ccc(C(N)=O)cc2)c(C)c1NC(=O)c1ccc(COc2ccccc2)cc1` [Compound A2a, N-(1-(4-Carbamoylbenzyl)-3,5-dimethyl-1H-pyrazol-4-yl)-4-(phenoxymethyl)benzamide], the EC50 in the test on Panc-1 cells and in the test with MIA PaCa-2 cells was above 100 µM in each case.
Regarding `CNC(=O)c1cccc(Cn2nc(C)c(NC(=O)c3ccc(OCc4ccccc4)cc3)c2C)c1` [Compound C5, 3-((4-(4-(Benzyloxy)benzamido)-3,5-dimethyl-1H-pyrazol-1-yl)methyl)-N-methylbenzamide], the half-maximal effective concentration (EC50) stood at 6 µM in the test with Panc-1 cells and 8.2 µM in the test with MIA PaCa-2 cells.
As to `CNC(=O)c1cccc(Cn2nc(C)c(NC(=O)c3ccc(COc4cccc5ccccc45)cc3)c2C)c1` [Compound D2, 3-((3,5-Dimethyl-4-(4-((naphthalen-1-yloxy)methyl)benzamido)-1H-pyrazol-1-yl)methyl)-N-methylbenzamide], the EC50 in the test on Panc-1 cells was determined as 1.3 µM; in the test on MIA PaCa-2 cells, 6 µM.
`CNC(=O)c1cccc(Cn2nc(C)c(NC(=O)c3ccc(COc4ccccc4OC)cc3)c2C)c1` [Compound D4a, 3-((4-(4-((2-Methoxyphenoxy)methyl)benzamido)-3,5-dimethyl-1H-pyrazol-1-yl)methyl)-N-methylbenzamide]: the figures for the EC50 in the test on Panc-1 cells and in the test on MIA PaCa-2 cells were 25 µM and 8.5 µM, respectively.
The corresponding values for `Cc1nn(Cc2ccccc2[N+](=O)[O-])c(C)c1NC(=O)c1ccc(COc2ccccc2)cc1` [Compound A5c, N-(3,5-Dimethyl-1-(2-nitrobenzyl)-1H-pyrazol-4-yl)-4-(phenoxymethyl)benzamide] are 5.3 µM and 6 µM.
Regarding `CNC(=O)c1cccc(Cn2nc(C)c(NC(=O)c3ccc(CCc4ccccc4)cc3)c2C)c1` [Compound C3, 3-((3,5-Dimethyl-4-(4-phenethylbenzamido)-1H-pyrazol-1-yl)methyl)-N-methylbenzamide], the EC50 is 0.76 µM with Panc-1 cells and 5.4 µM in the test with MIA PaCa-2 cells.
